Measured values reported in ChEMBL document CHEMBL1201862, “PubChem BioAssay data set” (2004).
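Method: 48-hour compound exposure of cells in 96-well plates, five concentrations, linear interpolation of endpoints. GI50 is the concentration that inhibits growth by half.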 Active and inactive are the calls of the source. Rule as the data show it: active = GI50 up to about 1.1 µM and inactive = higher.

Columns and labels:
Test in all cases: NCI-60 cell line screen, 48 h
MDA-N = test system: MDA-N
U-251 = test system: U-251
OVCAR-4 = test system: OVCAR-4
UACC-62 = test system: UACC-62
786-0 = test system: 786-0
CCRF-CEM = test system: CCRF-CEM
OVCAR-3 = test system: OVCAR-3
SK-MEL-2 = test system: SK-MEL-2
HOP-62 = test system: HOP-62
KM12 = test system: KM12
NCI-H23 = test system: NCI-H23
MOLT-4 = test system: MOLT-4
TK-10 = test system: TK-10
SNB-19 = test system: SNB-19
A549 = test system: A549
SK-OV-3 = test system: SK-OV-3
SF-268 = test system: SF-268
NCI-H522 = test system: NCI-H522
UO-31 = test system: UO-31

SMILES | GI50 (MDA-N) | GI50 (U-251) | GI50 (OVCAR-4) | GI50 (UACC-62) | GI50 (786-0) | GI50 (CCRF-CEM) | GI50 (OVCAR-3) | GI50 (SK-MEL-2) | GI50 (HOP-62) | GI50 (KM12) | GI50 (NCI-H23) | GI50 (MOLT-4) | GI50 (TK-10) | GI50 (SNB-19) | GI50 (A549) | GI50 (SK-OV-3) | GI50 (SF-268) | GI50 (NCI-H522) | GI50 (UO-31)
O=C(N/N=C(COc1ccccc1)\N=C\c1cccnc1)c1ccncc1 | > 100 µM (inactive) | > 100 µM (inactive) | > 100 µM (inactive) | > 100 µM (inactive) | > 100 µM (inactive) | > 100 µM (inactive) | > 100 µM (inactive) | > 100 µM (inactive) | 59.6 µM (inactive) | > 100 µM (inactive) | > 100 µM (inactive) | > 100 µM (inactive) | > 100 µM (inactive) | > 100 µM (inactive) | > 100 µM (inactive) | > 100 µM (inactive) | > 100 µM (inactive) | > 100 µM (inactive) | 
CC(C)(C)C1=C(Br)C(O)(C(C)(C)C)OP1(=O)c1ccccc1 (centres undefined) | > 100 µM (inactive) | > 100 µM (inactive) | > 100 µM (inactive) | > 100 µM (inactive) | > 100 µM (inactive) | > 100 µM (inactive) | > 100 µM (inactive) | > 100 µM (inactive) | > 100 µM (inactive) | > 100 µM (inactive) | > 100 µM (inactive) | > 100 µM (inactive) | > 100 µM (inactive) | > 100 µM (inactive) | > 100 µM (inactive) | > 100 µM (inactive) | > 100 µM (inactive) | > 100 µM (inactive) | 
CC(C)C12CCC3(CCC4C(C)(C(=O)O)CCCC4(C)C3C1)C(CN)C2 (centres undefined) | 28.4 µM (inactive) | 31.4 µM (inactive) | 67.9 µM (inactive) | 32.4 µM (inactive) | 20.2 µM (inactive) | 0.388 µM (active) | 40.1 µM (inactive) | 42.9 µM (inactive) | 74.6 µM (inactive) | 35.8 µM (inactive) | 25.6 µM (inactive) |  | 37.7 µM (inactive) | 39 µM (inactive) | 30.1 µM (inactive) | > 100 µM (inactive) | 54.8 µM (inactive) | 23.8 µM (inactive) | 40.4 µM (inactive)
Cc1nc2ccccc2c(=O)n1NC(=O)Cc1ccccc1 | > 100 µM (inactive) | > 100 µM (inactive) | > 100 µM (inactive) | 43.5 µM (inactive) | > 100 µM (inactive) | > 100 µM (inactive) | > 100 µM (inactive) |  | > 100 µM (inactive) | > 100 µM (inactive) | > 100 µM (inactive) | > 100 µM (inactive) | > 100 µM (inactive) | > 100 µM (inactive) | > 100 µM (inactive) | > 100 µM (inactive) | > 100 µM (inactive) | > 100 µM (inactive) | > 100 µM (inactive)
CCCCOC(=O)NC(Nc1ccc(S(=O)(=O)Nc2ncccn2)cc1)(C(F)(F)F)C(F)(F)F | > 100 µM (inactive) |  | > 100 µM (inactive) | > 100 µM (inactive) | > 100 µM (inactive) | 76 µM (inactive) | > 100 µM (inactive) |  | > 100 µM (inactive) | > 100 µM (inactive) | > 100 µM (inactive) | > 100 µM (inactive) | > 100 µM (inactive) | > 100 µM (inactive) | > 100 µM (inactive) | > 100 µM (inactive) | > 100 µM (inactive) | > 100 µM (inactive) | 21.7 µM (inactive)
